{"source": "paper PMC7582876", "about": "“Antiproliferative Properties of a Few Auranofin-Related Gold(I) and Silver(I) Complexes in Leukemia Cells and their Interferences with the Ubiquitin Proteasome System” (Molecules, 2020)", "key": {"[1]": {"target": "T1, chymotrypsin-like (ChT-L) activity of human 20S proteasome (Homo sapiens, UniProt P28074)", "T1 construct": "20S proteasome, isolated and purified from human erythrocytes; purchased Biomol GmbH, Hamburg, Germany; host or cells: human erythrocytes (native complex)", "assay": "Inhibition of chymotrypsin-like activity of 20S proteasome (Suc-Leu-Leu-Val-Tyr-AMC)", "assay_type": "biochemical", "conditions": "for ChT-L inhibition at 10 µM: over 10 min; for IC50: 10 min, no pre-incubation, 30 °C", "method": "20S proteasome, isolated and purified from human erythrocytes, was obtained from a commercial source (Biomol GmbH, Hamburg, Germany), as well as the peptidic substrates (Bachem, Bubendorf, Switzerland) Suc-Leu-Leu-Val-Tyr-AMC, Boc-Leu-Arg-Arg-AMC and Cbz-Leu-Leu-Glu-AMC for ChT-L, T-L and PGPH (C-L) activity of the enzyme, respectively. The three distinct proteolytic activities of the 20S proteasome were measured by monitoring the hydrolysis of the substrates and detecting the fluorescence of the common product released, i.e., 7-amino-4-methyl coumarin (7-AMC), by means of an Infinite 200 PRO microplate reader (Tecan, Männedorf, Switzerland) at 30 °C with a 380-nm excitation filter and a 460-nm emission filter. All gold and silver complexes were tested against the three proteolytic activities of the 20S proteasome and against Cat-B, Cat-L and bovine pancreatic α-chymotrypsin at 10 µM concentrations over a period of 10 min using an equivalent amount of DMSO as a negative control. […] The IC50 values were calculated with the program GraFit® using the two-parameter equation. More detailed experimental protocols for the assays against each proteolytic activity of the 20S proteasome, as well as against bovine pancreatic α-chymotrypsin, are already reported elsewhere (see also Supplementary Materials). Cat-B and Cat-L were purchased from Calbiochem, Darmstadt, Germany, and the related assays were performed as previously described. The employed fluorogenic substrate for both cysteine proteases was Cbz-Phe-Arg-AMC (80 µM for Cat-B; 5 µM for Cat-L). […]\nInhibition assay for the Chymotryptic Activity of the 20S Proteasome\nHuman 20S proteasome was incubated at 30 °C at a final concentration of 0.004 mg∙mL−1\nwith test compound present at 10 µM (screening assay) or at variable concentrations\n(continuous assay). The reaction buffer consisted of 50 mM Tris pH 7.5, 10 mM NaCl, 25\nmM KCl, 1 mM MgCl2, 0.03% SDS and 5% DMSO. Product release from substrate\nhydrolysis ([…]) was monitored continuously over a period of 10 min. […]"}, "[2]": {"test_system": "CCRF-CEM cells", "assay": "Resazurin cytotoxicity assay, drug-sensitive CCRF-CEM leukemia cells", "assay_type": "cell-based, human", "conditions": "cell growth, 72 h incubation, IC50 ± SD, n = 3", "method": "(§1) Drug-sensitive CCRF-CEM and multidrug-resistant (MDR) P-glycoprotein (P-gp)-over-expressing CEM/ADR5000 leukemic cells were kindly provided by Prof. Axel Sauerbrey (Department of Pediatrics, University of Jena, Germany). Cells were cultured in RPMA1640 medium including 10% fetal bovine serum (FBS) and 1% penicillin (1000 U/mL)/streptomycin (100 µg/mL) (Life Technologies, Darmstadt, Germany). Doxorubicin (5000 ng/mL) was added to maintain overexpression of P-gp (MDR1 and ABCB1) in CEM/ADR5000 cells. Doxorubicin was obtained from the University Pharmacy of the University Medical Center Mainz. CEM/ADR5000 cells display a more than 1000-fold resistance to doxorubicin [27] and are therefore a suitable model to identify novel drugs without or very low cross-resistance.\n(§2) The cytotoxic effects of the compounds solved in DMSO (Sigma-Aldrich, Taufkirchen, Germany) were tested by the resazurin assay. This assay is based on reduction of the indicator dye, resazurin, to the highly fluorescent resorufin by viable cells. Cells lethally damaged by cytotoxic compounds rapidly lose the enzymatic capability to reduce non-fluorescent resazurin to the highly fluorescent resorufin. As the reductive potential happens in a dose-dependent manner, this chemical reaction can be exploited to quantitatively determine the cytotoxic potential of investigational compounds and to measure dose-response relationships. With increasing concentrations of a cytotoxic drug, the fluorescence signal fades out. Aliquots of 10,000 cells/100 µL cells were seeded into 96-well plates (Thermo-Scientific, Dreieich, Germany) and immediately treated with various concentrations of each compound. After 72 h incubation at 37 °C, 20 µL resazurin 0.01% w/v solution (Invitrogen, Dreieich, Germany) were added to each well, and the plates were maintained at 37 °C for 4 h. Fluorescence was measuring by an Infinite M2000 Proplate reader (Tecan, Crailsheim, Germany) with an excitation wavelength of 544 nm and an emission wavelength of 590 nm. Each experiment was done at least three times with six replicates each. The viability was analyzed in comparison with untreated cells. […] It is a well-established measure to determine the cytotoxic potential of anticancer drugs. The IC50 values were calculated from a calibration curve by linear regression using Microsoft Excel."}, "[3]": {"test_system": "human cathepsin-L (Cat-L)", "assay": "Cathepsin-L inhibition screening", "assay_type": "biochemical", "conditions": "over 10 min", "method": "20S proteasome, isolated and purified from human erythrocytes, was obtained from a commercial source (Biomol GmbH, Hamburg, Germany), as well as the peptidic substrates (Bachem, Bubendorf, Switzerland) Suc-Leu-Leu-Val-Tyr-AMC, Boc-Leu-Arg-Arg-AMC and Cbz-Leu-Leu-Glu-AMC for ChT-L, T-L and PGPH (C-L) activity of the enzyme, respectively. The three distinct proteolytic activities of the 20S proteasome were measured by monitoring the hydrolysis of the substrates and detecting the fluorescence of the common product released, i.e., 7-amino-4-methyl coumarin (7-AMC), by means of an Infinite 200 PRO microplate reader (Tecan, Männedorf, Switzerland) at 30 °C with a 380-nm excitation filter and a 460-nm emission filter. All gold and silver complexes were tested against the three proteolytic activities of the 20S proteasome and against Cat-B, Cat-L and bovine pancreatic α-chymotrypsin at 10 µM concentrations over a period of 10 min using an equivalent amount of DMSO as a negative control. […]. The IC50 values were calculated with the program GraFit® using the two-parameter equation. More detailed experimental protocols for the assays against each proteolytic activity of the 20S proteasome, as well as against bovine pancreatic α-chymotrypsin, are already reported elsewhere (see also Supplementary Materials). Cat-B and Cat-L were purchased from Calbiochem, Darmstadt, Germany, and the related assays were performed as previously described. The employed fluorogenic substrate for both cysteine proteases was Cbz-Phe-Arg-AMC (80 µM for Cat-B; 5 µM for Cat-L). […]\nAssay for Cathepsin-B and Cathepsin-L Inhibition\nAssays were performed at 25 °C in a 20 mM Tris-HCl buffer, pH 6.0, containing 5 mM\nEDTA, 2.5 mM DTT, 200 mM NaCl, 0.005% Brij 35 in a total volume of 285 µL. Substrate\n(Cbz-Phe-Arg-AMC for both enzymes) and inhibitor stock solutions were prepared in\nDMSO (10% final concentration) and were diluted with assay buffer; enzymes were held\nfor CB (recombinant, human liver). Inhibitors were used at concentrations between 0.35\nµM and 140 µM. Product release from substrate hydrolysis was determined over a period"}, "[4]": {"test_system": "CEM/ADR5000 cells", "assay": "Resazurin cytotoxicity assay, multidrug-resistant CEM/ADR5000 leukemia cells", "assay_type": "cell-based, human", "conditions": "for IC50: cell growth, resazurin assay, 72 h incubation, IC50 ± SD, n = 3; for Degree of Resistance: ratio of IC50 of CEM/ADR5000 cells divided by IC50 of CCRF-CEM cells", "method": "as §1, §2"}}, "data": [{"smiles": "CC[PH](CC)(CC)[Ag][Br]", "note": "[Ag(PEt3)Br]", "values": [{"measurement": "ChT-L inhibition at 10 µM", "setting": "[1]", "result": "22 ± 0.4", "unit": "%"}, {"measurement": "IC50", "setting": "[2]", "result": "1.5 ± 0.1", "unit": "µM"}, {"measurement": "Cat-L Inhibition (%) at 10 µM", "setting": "[3]", "result": "n.i."}, {"measurement": "IC50", "setting": "[4]", "result": "3.89 ± 0.7", "unit": "µM"}, {"measurement": "Degree of Resistance", "setting": "[4]", "result": 2.59}]}, {"smiles": "CC[PH](CC)(CC)[Ag][Cl]", "note": "[Ag(PEt3)Cl]", "values": [{"measurement": "ChT-L inhibition at 10 µM", "setting": "[1]", "result": "28 ± 0.5", "unit": "%"}, {"measurement": "IC50", "setting": "[2]", "result": "1.36 ± 0.25", "unit": "µM"}, {"measurement": "Cat-L Inhibition (%) at 10 µM", "setting": "[3]", "result": "n.i."}, {"measurement": "IC50", "setting": "[4]", "result": "2.64 ± 0.48", "unit": "µM"}, {"measurement": "Degree of Resistance", "setting": "[4]", "result": 1.94}]}, {"smiles": "CC[PH](CC)(CC)[Ag][I]", "note": "[Ag(PEt3)I]", "values": [{"measurement": "ChT-L inhibition at 10 µM", "setting": "[1]", "result": "25 ± 0.2", "unit": "%"}, {"measurement": "IC50", "setting": "[2]", "result": "1.28 ± 0.12", "unit": "µM"}, {"measurement": "Cat-L Inhibition (%) at 10 µM", "setting": "[3]", "result": "n.i."}, {"measurement": "IC50", "setting": "[4]", "result": "1.46 ± 0.15", "unit": "µM"}, {"measurement": "Degree of Resistance", "setting": "[4]", "result": 1.14}]}, {"smiles": "CCP(CC)CC.[Br][Au]", "note": "[Au(PEt3)Br]", "values": [{"measurement": "IC50", "setting": "[1]", "result": "1.4 ± 0.8", "unit": "µM"}, {"measurement": "IC50", "setting": "[2]", "result": "0.28 ± 0.06", "unit": "µM"}, {"measurement": "Cat-L Inhibition (%) at 10 µM", "setting": "[3]", "result": "n.i."}, {"measurement": "IC50", "setting": "[4]", "result": "0.27 ± 0.05", "unit": "µM"}, {"measurement": "Degree of Resistance", "setting": "[4]", "result": 0.96}]}, {"smiles": "CCP(CC)CC.[Au+].[Cl-]", "note": "[Au(PEt3)Cl]", "values": [{"measurement": "IC50", "setting": "[1]", "result": "2.6 ± 0.3", "unit": "µM"}, {"measurement": "IC50", "setting": "[2]", "result": "0.35 ± 0.03", "unit": "µM"}, {"measurement": "Cat-L Inhibition (%) at 10 µM", "setting": "[3]", "result": "n.i."}, {"measurement": "IC50", "setting": "[4]", "result": "0.26 ± 0.04", "unit": "µM"}, {"measurement": "Degree of Resistance", "setting": "[4]", "result": 0.74}]}, {"smiles": "CC[P](CC)(CC)[Au][I]", "note": "[Au(PEt3)I]", "values": [{"measurement": "IC50", "setting": "[1]", "result": "6.1 ± 0.4", "unit": "µM"}, {"measurement": "IC50", "setting": "[2]", "result": "0.32 ± 0.07", "unit": "µM"}, {"measurement": "Cat-L Inhibition (%) at 10 µM", "setting": "[3]", "result": "n.i."}, {"measurement": "IC50", "setting": "[4]", "result": "0.28 ± 0.08", "unit": "µM"}, {"measurement": "Degree of Resistance", "setting": "[4]", "result": 0.87}]}, {"smiles": "CCP(CC)CC.CCP(CC)CC.O=[N+]([O-])[O-].[Ag+]", "note": "[[Ag(PEt3)2]NO3]", "values": [{"measurement": "ChT-L inhibition at 10 µM", "setting": "[1]", "result": "38 ± 5.0", "unit": "%"}, {"measurement": "Cat-L Inhibition (%) at 10 µM", "setting": "[3]", "result": "20 ± 0.4", "unit": "%"}, {"measurement": "Degree of Resistance", "setting": "[4]", "result": 3.05}]}, {"smiles": "CC(=O)OC[C@H]1O[C@@H]([S-])[C@H](OC(C)=O)[C@@H](OC(C)=O)[C@@H]1OC(C)=O.CCP(CC)CC.[Au+]", "note": "[auranofin, Auranofin]", "values": [{"measurement": "ChT-L inhibition at 10 µM", "setting": "[1]", "result": "n.i. ^a"}, {"measurement": "IC50", "setting": "[2]", "result": "0.22 ± 0.08", "unit": "µM"}, {"measurement": "Cat-L Inhibition (%) at 10 µM", "setting": "[3]", "result": "n.i."}, {"measurement": "IC50", "setting": "[4]", "result": "0.28 ± 0.06", "unit": "µM"}, {"measurement": "Degree of Resistance", "setting": "[4]", "result": 1.27}]}]}
